# In PMC5552854, “ER/K linked GPCR-G protein fusions systematically modulate second messenger response in cells” (Scientific Reports, 2017):
# Key:
# [1] = target: β2-AR control (–) sensor; assay: [3H]-DHA saturation binding (KD); parameters: species or system human; settings: control sensor membranes
# Description: (§1) Radio-ligand assays followed the previously published protocol. […]; PerkinElmer) for 90 min at room temperature in Tris-Buffered-Saline (TBS) pH 7.4. Samples were transferred to GF/C membranes pre-treated with 0.3% PEI solution in TBS, washed extensively with cold TBS, and dried over night at room temperature. […] Each experiment was done at least twice with different membrane preparations, with three separate samples prepared per condition, per experiment.
# [2] = target: β2-AR-Gs sensor; assay: [3H]-DHA saturation binding (KD); parameters: species or system human; settings: β2-AR-Gs sensor membranes
# Description: as §1
# [3] = tested on: α2-AR-Gi fusion; settings: 100 μM / 1 mM (Fig. 3 legend), live cells
# Description: Change in FRET (ΔFRET) was calculated as FRETligand – FRETbuffer.
# [4] = tested on: α2-AR-Gi fusion; settings: 100 μM, 1 μM forskolin; α2-AR-Gi compared to α2-AR alone (–)
Kd [1] [nM],Kd [2] [nM],Compound,ΔFRET [3],loss in cAMP signaling (inhibition of forskolin induced cAMP) [4]
~0.2,~0.2,"CCCc1ccccc1OCC(O)CNC(C)C (stereo not shown) [[^3H]-DHA, [^3H]-dihydroalprenolol]",,
,,CNC[C@H](O)c1ccc(O)c(O)c1 [epinephrine],0.01 ± 0.002,greater loss in cAMP signaling
